The values below come from US20240246942A1, “KINASE INHIBITORS FOR THE TREATMENT OF NEURODEGENERATIVE DISEASES” (priority 2020, published 2024).

Common to all, as to assay: biochemical
Assay [1] addresses T1, panel of 374 wild-type kinases (Homo sapiens, UniProt P41279).
T1 construct: purchased Reaction Biology Corporation
To be noted: read-out: % Enzyme Activity (relative to DMSO controls), COT1/MAP3K8.

The target of assay [2] is T2, panel of 374 wild-type kinases (Homo sapiens, UniProt P51617).
T2 construct: purchased Reaction Biology Corporation
The conditions noted are these: read-out: % Enzyme Activity (relative to DMSO controls), IRAK1.

Assay [3] concerns the target T3, panel of 374 wild-type kinases (Homo sapiens, UniProt Q6VAB6).
T3 construct: purchased Reaction Biology Corporation
T3 sequence (Q6VAB6 1-950): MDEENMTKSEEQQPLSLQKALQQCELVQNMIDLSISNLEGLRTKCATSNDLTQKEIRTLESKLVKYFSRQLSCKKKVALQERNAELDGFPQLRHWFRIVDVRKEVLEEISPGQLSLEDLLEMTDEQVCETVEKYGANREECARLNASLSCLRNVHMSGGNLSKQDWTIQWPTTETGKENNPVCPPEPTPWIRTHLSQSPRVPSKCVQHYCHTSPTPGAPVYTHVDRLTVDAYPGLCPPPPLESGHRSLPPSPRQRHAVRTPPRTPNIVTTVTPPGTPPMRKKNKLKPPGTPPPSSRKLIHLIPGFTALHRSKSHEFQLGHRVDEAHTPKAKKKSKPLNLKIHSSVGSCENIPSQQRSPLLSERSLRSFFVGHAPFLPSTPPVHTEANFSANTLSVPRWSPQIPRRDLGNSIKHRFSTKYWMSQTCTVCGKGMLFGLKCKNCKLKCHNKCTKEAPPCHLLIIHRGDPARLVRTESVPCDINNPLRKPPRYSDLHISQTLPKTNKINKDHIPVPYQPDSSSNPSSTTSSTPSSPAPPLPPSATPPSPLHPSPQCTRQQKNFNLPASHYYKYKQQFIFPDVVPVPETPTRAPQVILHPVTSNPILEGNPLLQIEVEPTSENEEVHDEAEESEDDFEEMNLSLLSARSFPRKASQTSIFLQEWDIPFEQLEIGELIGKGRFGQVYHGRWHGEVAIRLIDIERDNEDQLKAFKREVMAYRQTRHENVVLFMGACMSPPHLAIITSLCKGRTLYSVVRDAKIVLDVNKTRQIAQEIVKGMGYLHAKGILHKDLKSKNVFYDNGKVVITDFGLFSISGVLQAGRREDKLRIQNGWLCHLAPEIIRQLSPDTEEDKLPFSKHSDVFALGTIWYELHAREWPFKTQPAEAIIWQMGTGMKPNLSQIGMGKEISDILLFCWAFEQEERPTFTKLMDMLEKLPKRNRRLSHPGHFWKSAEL
The conditions noted are these: read-out: % Enzyme Activity (relative to DMSO controls), KSR2.

In assay [4] the target is T4, panel of 374 wild-type kinases (Homo sapiens, UniProt Q9BXA6).
T4 construct: purchased Reaction Biology Corporation
The conditions noted are these: read-out: % Enzyme Activity (relative to DMSO controls), kinase SSTK/TSSK6.

The target of assay [5] is T5, panel of 374 wild-type kinases (Homo sapiens, UniProt O94806).
T5 construct: purchased Reaction Biology Corporation
T5 sequence (O94806 1-890): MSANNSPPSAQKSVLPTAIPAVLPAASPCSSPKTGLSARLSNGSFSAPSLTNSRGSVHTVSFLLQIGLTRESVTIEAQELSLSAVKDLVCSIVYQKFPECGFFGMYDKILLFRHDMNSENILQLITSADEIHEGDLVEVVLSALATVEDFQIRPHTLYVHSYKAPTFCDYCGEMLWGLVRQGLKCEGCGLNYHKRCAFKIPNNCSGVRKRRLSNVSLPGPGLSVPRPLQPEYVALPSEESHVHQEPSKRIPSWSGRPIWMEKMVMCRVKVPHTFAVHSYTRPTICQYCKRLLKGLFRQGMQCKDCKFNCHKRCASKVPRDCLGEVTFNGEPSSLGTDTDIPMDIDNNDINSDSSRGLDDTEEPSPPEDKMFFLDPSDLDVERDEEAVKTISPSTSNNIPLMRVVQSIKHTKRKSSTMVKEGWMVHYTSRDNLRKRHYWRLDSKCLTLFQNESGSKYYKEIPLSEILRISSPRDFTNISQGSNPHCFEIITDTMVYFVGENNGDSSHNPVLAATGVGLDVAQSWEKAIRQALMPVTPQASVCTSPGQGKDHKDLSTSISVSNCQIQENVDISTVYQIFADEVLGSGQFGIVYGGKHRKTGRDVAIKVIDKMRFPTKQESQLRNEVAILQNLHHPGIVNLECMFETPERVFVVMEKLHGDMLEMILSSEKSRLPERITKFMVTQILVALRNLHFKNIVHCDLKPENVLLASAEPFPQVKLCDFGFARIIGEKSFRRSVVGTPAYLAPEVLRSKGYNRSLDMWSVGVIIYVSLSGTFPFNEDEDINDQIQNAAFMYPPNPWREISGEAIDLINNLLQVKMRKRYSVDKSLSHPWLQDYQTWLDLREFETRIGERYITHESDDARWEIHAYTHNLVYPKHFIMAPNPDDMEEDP
The conditions noted are these: read-out: % Enzyme Activity (relative to DMSO controls), kinase PKCnu/PRKD3.

The target in assay [6] is T6, panel of 374 wild-type kinases (Homo sapiens, UniProt Q16513).
T6 construct: purchased Reaction Biology Corporation

Assay [7] has as its target T7, panel of 374 wild-type kinases (Homo sapiens, UniProt Q9H4A3).
T7 construct: purchased Reaction Biology Corporation
The conditions noted are these: read-out: % Enzyme Activity (relative to DMSO controls), kinase WNK1.

Molecules are shown by their SMILES. Read-outs that look alike come from different tables or passages of the source.

T2 sequence (P51617 whole entry): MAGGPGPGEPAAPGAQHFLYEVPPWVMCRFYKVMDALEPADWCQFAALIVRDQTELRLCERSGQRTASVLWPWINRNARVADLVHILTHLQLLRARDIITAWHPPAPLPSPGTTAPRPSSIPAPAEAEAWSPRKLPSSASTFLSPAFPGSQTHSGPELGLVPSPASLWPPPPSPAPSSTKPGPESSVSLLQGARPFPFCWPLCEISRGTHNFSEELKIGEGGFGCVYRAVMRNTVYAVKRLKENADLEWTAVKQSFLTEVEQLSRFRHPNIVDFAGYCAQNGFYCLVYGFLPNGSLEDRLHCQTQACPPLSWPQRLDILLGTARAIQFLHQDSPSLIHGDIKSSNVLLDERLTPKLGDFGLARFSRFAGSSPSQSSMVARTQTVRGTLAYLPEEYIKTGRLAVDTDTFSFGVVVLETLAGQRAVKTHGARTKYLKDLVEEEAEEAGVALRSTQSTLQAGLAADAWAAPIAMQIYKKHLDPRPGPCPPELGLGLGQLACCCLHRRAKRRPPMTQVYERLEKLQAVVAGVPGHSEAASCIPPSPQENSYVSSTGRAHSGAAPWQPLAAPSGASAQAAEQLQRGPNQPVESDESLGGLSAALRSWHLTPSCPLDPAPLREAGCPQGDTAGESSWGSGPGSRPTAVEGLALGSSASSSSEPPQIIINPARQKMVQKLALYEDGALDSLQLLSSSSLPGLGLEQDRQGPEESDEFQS
T4 sequence (Q9BXA6 whole entry): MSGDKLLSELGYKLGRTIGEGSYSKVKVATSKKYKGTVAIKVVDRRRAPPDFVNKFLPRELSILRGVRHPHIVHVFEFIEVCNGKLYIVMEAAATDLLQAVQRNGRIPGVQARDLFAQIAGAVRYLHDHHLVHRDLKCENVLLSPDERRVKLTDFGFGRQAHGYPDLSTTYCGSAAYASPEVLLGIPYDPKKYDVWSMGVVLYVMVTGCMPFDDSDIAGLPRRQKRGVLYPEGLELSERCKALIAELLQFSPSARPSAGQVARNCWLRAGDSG
T1 sequence (P41279 whole entry): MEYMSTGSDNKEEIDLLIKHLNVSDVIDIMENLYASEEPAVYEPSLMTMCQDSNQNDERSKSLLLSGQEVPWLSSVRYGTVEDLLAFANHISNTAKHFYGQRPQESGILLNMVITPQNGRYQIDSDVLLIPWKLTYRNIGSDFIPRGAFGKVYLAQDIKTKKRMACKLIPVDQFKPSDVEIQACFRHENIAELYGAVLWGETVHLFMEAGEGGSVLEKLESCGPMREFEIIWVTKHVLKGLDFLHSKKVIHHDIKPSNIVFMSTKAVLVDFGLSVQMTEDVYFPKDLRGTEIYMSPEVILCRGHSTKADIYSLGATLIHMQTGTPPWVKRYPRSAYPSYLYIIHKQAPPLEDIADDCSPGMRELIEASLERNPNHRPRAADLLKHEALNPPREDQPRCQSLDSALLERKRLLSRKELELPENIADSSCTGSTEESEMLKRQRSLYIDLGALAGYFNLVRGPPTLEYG
T7 sequence (Q9H4A3 whole entry): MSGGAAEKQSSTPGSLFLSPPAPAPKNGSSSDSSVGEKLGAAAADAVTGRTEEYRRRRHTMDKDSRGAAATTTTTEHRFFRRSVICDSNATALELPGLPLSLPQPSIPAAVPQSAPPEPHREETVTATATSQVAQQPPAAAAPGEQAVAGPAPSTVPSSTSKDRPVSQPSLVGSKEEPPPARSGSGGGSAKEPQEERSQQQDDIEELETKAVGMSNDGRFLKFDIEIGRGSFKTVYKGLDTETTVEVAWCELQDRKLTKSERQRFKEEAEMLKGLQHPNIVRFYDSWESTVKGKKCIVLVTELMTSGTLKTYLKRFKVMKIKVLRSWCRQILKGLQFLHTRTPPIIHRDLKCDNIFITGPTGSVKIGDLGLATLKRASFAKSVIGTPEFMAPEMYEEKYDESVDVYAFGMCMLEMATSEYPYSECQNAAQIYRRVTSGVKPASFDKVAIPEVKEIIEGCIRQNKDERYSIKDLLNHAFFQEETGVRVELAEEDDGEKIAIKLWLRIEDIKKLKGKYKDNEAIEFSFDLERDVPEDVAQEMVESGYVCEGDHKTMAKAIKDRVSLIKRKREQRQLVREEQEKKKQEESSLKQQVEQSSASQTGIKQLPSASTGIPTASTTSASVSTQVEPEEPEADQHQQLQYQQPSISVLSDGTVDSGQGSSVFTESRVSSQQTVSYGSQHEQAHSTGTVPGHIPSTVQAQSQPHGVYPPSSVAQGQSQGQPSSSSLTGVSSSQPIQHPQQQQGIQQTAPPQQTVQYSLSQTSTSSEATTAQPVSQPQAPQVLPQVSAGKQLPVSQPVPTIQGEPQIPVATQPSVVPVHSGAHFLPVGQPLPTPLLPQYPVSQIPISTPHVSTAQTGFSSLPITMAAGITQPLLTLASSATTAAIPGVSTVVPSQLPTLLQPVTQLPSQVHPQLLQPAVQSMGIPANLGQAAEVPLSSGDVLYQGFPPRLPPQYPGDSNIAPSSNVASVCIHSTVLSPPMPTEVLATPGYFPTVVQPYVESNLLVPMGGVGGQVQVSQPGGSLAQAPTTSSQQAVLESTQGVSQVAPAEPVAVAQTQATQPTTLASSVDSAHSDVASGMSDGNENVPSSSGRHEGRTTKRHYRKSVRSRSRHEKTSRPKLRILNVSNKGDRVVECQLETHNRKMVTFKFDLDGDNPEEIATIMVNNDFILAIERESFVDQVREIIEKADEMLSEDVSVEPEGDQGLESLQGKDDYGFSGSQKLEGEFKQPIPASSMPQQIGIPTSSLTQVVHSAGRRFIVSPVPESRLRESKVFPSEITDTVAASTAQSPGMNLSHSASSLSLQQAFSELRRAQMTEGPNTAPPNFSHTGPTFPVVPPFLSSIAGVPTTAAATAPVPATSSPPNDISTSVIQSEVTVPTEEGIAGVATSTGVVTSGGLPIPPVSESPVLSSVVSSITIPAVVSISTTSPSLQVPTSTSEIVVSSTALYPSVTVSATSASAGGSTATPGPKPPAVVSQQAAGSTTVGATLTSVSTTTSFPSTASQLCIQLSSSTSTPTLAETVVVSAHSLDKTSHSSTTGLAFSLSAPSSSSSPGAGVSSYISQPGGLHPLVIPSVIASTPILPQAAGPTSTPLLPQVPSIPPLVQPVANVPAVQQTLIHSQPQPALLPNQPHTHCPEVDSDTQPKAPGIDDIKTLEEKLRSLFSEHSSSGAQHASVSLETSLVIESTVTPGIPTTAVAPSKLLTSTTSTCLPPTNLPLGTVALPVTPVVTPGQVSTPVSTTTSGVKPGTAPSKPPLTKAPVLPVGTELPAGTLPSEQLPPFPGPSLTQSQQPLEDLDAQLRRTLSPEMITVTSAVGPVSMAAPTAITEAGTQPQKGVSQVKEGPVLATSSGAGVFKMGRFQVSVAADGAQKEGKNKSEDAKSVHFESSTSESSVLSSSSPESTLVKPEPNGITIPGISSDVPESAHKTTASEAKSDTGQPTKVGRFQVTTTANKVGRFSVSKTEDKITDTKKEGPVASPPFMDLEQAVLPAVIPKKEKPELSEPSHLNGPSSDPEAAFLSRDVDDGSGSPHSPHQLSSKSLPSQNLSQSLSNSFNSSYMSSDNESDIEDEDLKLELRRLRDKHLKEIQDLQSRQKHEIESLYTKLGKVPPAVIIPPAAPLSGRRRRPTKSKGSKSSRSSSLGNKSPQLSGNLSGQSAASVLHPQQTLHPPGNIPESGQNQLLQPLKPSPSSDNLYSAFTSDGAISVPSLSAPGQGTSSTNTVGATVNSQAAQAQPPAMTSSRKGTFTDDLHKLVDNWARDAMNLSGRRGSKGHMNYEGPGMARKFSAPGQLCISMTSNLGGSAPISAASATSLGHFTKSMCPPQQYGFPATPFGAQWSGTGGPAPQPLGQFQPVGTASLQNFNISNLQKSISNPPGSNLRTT
T6 sequence (Q16513 whole entry): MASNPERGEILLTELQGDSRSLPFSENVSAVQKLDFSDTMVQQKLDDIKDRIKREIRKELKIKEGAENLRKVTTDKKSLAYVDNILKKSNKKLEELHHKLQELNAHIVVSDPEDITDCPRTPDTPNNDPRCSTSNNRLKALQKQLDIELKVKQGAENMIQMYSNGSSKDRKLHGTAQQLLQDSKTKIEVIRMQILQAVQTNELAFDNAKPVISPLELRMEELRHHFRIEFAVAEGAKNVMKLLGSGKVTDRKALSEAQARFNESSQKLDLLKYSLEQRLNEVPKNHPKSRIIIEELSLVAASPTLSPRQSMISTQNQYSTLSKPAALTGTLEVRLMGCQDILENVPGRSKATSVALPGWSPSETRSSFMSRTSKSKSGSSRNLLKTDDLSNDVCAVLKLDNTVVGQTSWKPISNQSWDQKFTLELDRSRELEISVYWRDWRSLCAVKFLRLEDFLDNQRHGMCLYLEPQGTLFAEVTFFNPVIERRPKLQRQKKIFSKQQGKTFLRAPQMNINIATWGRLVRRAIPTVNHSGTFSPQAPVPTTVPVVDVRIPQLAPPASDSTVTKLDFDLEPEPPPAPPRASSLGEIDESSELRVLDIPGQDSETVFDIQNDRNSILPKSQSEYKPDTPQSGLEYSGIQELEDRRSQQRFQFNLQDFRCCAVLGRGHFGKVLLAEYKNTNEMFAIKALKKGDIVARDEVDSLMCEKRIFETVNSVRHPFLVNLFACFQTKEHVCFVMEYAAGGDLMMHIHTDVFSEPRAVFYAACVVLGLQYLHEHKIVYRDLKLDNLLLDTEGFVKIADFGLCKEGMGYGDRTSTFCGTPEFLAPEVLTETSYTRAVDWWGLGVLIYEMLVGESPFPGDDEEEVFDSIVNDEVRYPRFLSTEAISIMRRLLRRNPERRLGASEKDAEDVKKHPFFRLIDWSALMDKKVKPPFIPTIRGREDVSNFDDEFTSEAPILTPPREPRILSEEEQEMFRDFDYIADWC

Take `O=C(Nc1cnn(-c2csc(C(=O)NC3COC3)c2)c1)Nc1ccccc1Cl` [Compound 17, 4-(4-(3-(2-chlorophenyl)ureido)-1H-pyrazol-1-yl)-N-(oxetan-3-yl)thiophene-2-carboxamide]: the remaining activity at 5 µM in assay [1] worked out at 92.7%; in assay [2] it was 112%; in assay [3] it was 107%; in assay [4] it was 103%; in assay [5], 104%; in assay [6] (read-out: % Enzyme Activity (relative to DMSO controls), kinase PKN2/PRK2) it was 112%. In addition, the remaining activity at 5 µM in assay [7] amounted to 99.7%.

Consider `O=C(Nc1cnn(-c2csc(C(=O)NC3COC3)c2)c1)Nc1c(F)cccc1Cl` [Compound 25, 4-(4-(3-(2-chloro-6-fluorophenyl)ureido)-1H-pyrazol-1-yl)-N-(oxetan-3-yl)thiophene-2-carboxamide], for which the remaining activity at 5 µM in assay [1] is 93.6%; in assay [2], 107%; in assay [3], 92.7%; in assay [4], 103%; in assay [5], 105%; in assay [6] (kinase PKN2/PRK2, read-out: % Enzyme Activity (relative to DMSO controls)), 105%. For the same molecule, in assay [7], the remaining activity at 5 µM worked out at 93.3%.

For `Cc1sc(C(=O)NC2COC2)cc1-n1cc(NC(=O)Nc2c(F)cccc2Cl)cn1` [Compound 27, 4-(4-(3-(2-chloro-6-fluorophenyl)ureido)-1H-pyrazol-1-yl)-5-methyl-N-(oxetan-3-yl)thiophene-2-carboxamide], the remaining activity at 10 µM in assay [1] (10 uM) is 105%; in assay [2] (10 uM), 79.9%; in assay [3] (10 uM), 99.2%; in assay [4] (10 uM) it was 94%; in assay [5] (10 uM), 105%; in assay [6] (read-out: % Enzyme Activity (relative to DMSO controls), kinase PKN2/PRK2, 10 uM) it was 87.1%. For the same molecule, the remaining activity at 10 µM in assay [7] (10 uM) is 88.9%.
